The results in this text go back to ChEMBL document CHEMBL1143904, “Beta-lactam congeners of orlistat as inhibitors of fatty acid synthase” (Bioorg Med Chem Lett, 2008).

Calls of active or inactive are those of the source. No cut-off for these calls is given here.

The assay can be described thus: Inhibition of recombinant fatty acid synthase thioesterase domain by fluorogenic assay.

Take `CCCCCCCCCCC[C@H](O)C[C@H]1[C@H](CCCCCC)C(=O)N1OCc1ccccc1`: the IC50 was 86.8 µM.

Consider `CCCCCC[C@@H]1C(=O)N[C@H]1C[C@@H](O)CCCCC`, for which the IC50 was determined as 67.6 µM.

As for `CCCCCCCCCCC[C@@H](C[C@H]1[C@H](CCCCCC)C(=O)N1OCc1ccccc1)O[Si](C)(C)C(C)(C)C`, the concentration for half-maximal inhibition (IC50) is 8.6 µM.

For the compound `CCCCCCCCCCC[C@@H](C[C@H]1[C@H](CCCCCC)C(=O)N1OCc1ccccc1)OC(=O)CNC=O`, the IC50 amounted to 68.9 µM.

With `CCCCCC[C@@H]1C(=O)N(OCc2ccccc2)[C@H]1C[C@H](CCCCC)OC(=O)[C@@H](NC=O)C(C)C`, the IC50 was 58.2 µM.

For the compound `CCCCCCCCCCC[C@@H](C[C@@H]1NC(=O)[C@H]1CCCCCC)OC(=O)CNC=O`, the result was inactive.

On to `CCCCCC[C@@H]1C(=O)N(OCc2ccccc2)[C@H]1C[C@@H](O)CCCCC`, for which the IC50 was found to be 50.5 µM.

As to `CCCCCCCCCCC[C@H](C[C@H]1NC(=O)[C@@H]1CCCCCC)OC(=O)CNC=O`, the result was inactive.

As to `CCCCCCCCCCC[C@H](C[C@@H]1[C@@H](CCCCCC)C(=O)N1OCc1ccccc1)OC(=O)CNC=O`, the IC50 was 39.2 µM.

Take `CCCCCCCCCCC[C@H](C[C@@H]1[C@@H](CCCCCC)C(=O)N1OCc1ccccc1)O[Si](C)(C)C(C)(C)C`: the IC50 stood at 97.4 µM.

In the case of `CCCCCCCCCCC[C@@H](O)C[C@@H]1[C@@H](CCCCCC)C(=O)N1OCc1ccccc1`, the IC50 worked out at 61.2 µM.
